Results reported in PubChem BioAssay AID2060906 (Molecular Pharmacology Branch, DTP, NCI, 2025).

System: 485176-168-R4-J1-PDC complex spheroid growth
Assay: Anticancer human tumor 485176-168-R4-J1-PDC patient-derived pancreatic adenocarcinoma cell line growth inhibition [RAS]
Settings: for viability, T/C: stronger effect = lower value
In short: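 Tumour cells grown as complex spheroids with HUVEC endothelial cells and mesenchymal stem cells, treated with RAS pathway inhibitor combinations. Each agent spans half-log steps from near clinical Cmax, or 10 microM where Cmax is unknown.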

[1] = curve of first compound, second compound 0.0316 µM
[2] = curve of first compound, second compound 0.1 µM
[3] = curve of first compound, second compound 0.316 µM
[4] = curve of first compound, second compound 1 µM
[5] = second compound 0.0316 µM, first compound 0.00316 µM
[6] = second compound 0.0316 µM, first compound 0.01 µM
[7] = second compound 0.0316 µM, first compound 0.0316 µM
[8] = second compound 0.0316 µM, first compound 0.1 µM
[9] = second compound 0.0316 µM, first compound 0.316 µM
[10] = second compound 0.0316 µM, first compound 1 µM
[11] = second compound 0.1 µM, first compound 0.00316 µM
[12] = second compound 0.1 µM, first compound 0.01 µM
[13] = second compound 0.1 µM, first compound 0.0316 µM
[14] = second compound 0.1 µM, first compound 0.1 µM
[15] = second compound 0.1 µM, first compound 0.316 µM
[16] = second compound 0.1 µM, first compound 1 µM
[17] = second compound 0.316 µM, first compound 0.00316 µM
[18] = second compound 0.316 µM, first compound 0.01 µM
[19] = second compound 0.316 µM, first compound 0.0316 µM
[20] = second compound 0.316 µM, first compound 0.1 µM
[21] = second compound 0.316 µM, first compound 0.316 µM
[22] = second compound 0.316 µM, first compound 1 µM
[23] = second compound 1 µM, first compound 0.00316 µM
[24] = second compound 1 µM, first compound 0.01 µM
[25] = second compound 1 µM, first compound 0.0316 µM
[26] = second compound 1 µM, first compound 0.1 µM
[27] = second compound 1 µM, first compound 0.316 µM
[28] = second compound 1 µM, first compound 1 µM
[29] = curve of first compound, second compound 3.16 µM
[30] = curve of first compound, second compound 10 µM
[31] = second compound 3.16 µM, first compound 0.0316 µM
[32] = second compound 3.16 µM, first compound 0.1 µM
[33] = second compound 3.16 µM, first compound 0.316 µM
[34] = second compound 3.16 µM, first compound 1 µM
[35] = second compound 10 µM, first compound 0.0316 µM
[36] = second compound 10 µM, first compound 0.1 µM
[37] = second compound 10 µM, first compound 0.316 µM
[38] = second compound 10 µM, first compound 1 µM
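Further: spheroids exposed to compounds for seven days before readout.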
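Wherever viability, T/C is given: luminescence viability expressed relative to DMSO vehicle wells set as 100%.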

`Nc1ccn(C2OC(CO)C(O)C2(F)F)c(=O)n1` (configuration not stated) + C=CC(=O)N1CCN(c2nc(OCC3CCCN3C)nc3c(F)c(-c4nc(N)cc(C)c4C(F)(F)F)c(Cl)cc23)C(C)C1 showed an IC50 (curve of first compound, second compound 0.00316 µM) of 0.015 µM, an IC50 (curve of first compound, second compound 0.01 µM) of 0.0168 µM and an IC50 [1] of 0.0175 µM. It also gave an IC50 [2] of 0.0176 µM, an IC50 [3] of 0.0137 µM and an IC50 [4] of 0.0175 µM. The viability, T/C (second compound 0.00316 µM, first compound 0.00316 µM) was 89.7%, the viability, T/C (second compound 0.00316 µM, first compound 0.01 µM) was 70.5% and the viability, T/C (second compound 0.00316 µM, first compound 0.0316 µM) was 12.2%. It also gave a viability, T/C (second compound 0.00316 µM, first compound 0.1 µM) of 7.74%, a viability, T/C (second compound 0.00316 µM, first compound 0.316 µM) of 7.62% and a viability, T/C (second compound 0.00316 µM, first compound 1 µM) of 8.54%. The viability, T/C (second compound 0.01 µM, first compound 0.00316 µM) was 101%, the viability, T/C (second compound 0.01 µM, first compound 0.01 µM) was 81.4% and the viability, T/C (second compound 0.01 µM, first compound 0.0316 µM) was 11.6%. The viability, T/C (second compound 0.01 µM, first compound 0.1 µM) was 8.54%, the viability, T/C (second compound 0.01 µM, first compound 0.316 µM) was 7.95% and the viability, T/C (second compound 0.01 µM, first compound 1 µM) was 11.2%. It also gave a viability, T/C [5] of 84.2%, a viability, T/C [6] of 86% and a viability, T/C [7] of 13%. The viability, T/C [8] was 6.18%, the viability, T/C [9] was 9.67% and the viability, T/C [10] was 8.77%. The viability, T/C [11] was 96.1%, the viability, T/C [12] was 86.2% and the viability, T/C [13] was 12.4%. For the same compound, the viability, T/C [14] was 9.42%, the viability, T/C [15] was 8.72% and the viability, T/C [16] was 8.42%. For the same compound, the viability, T/C [17] was 98.1%, the viability, T/C [18] was 63.7% and the viability, T/C [19] was 13.7%. The viability, T/C [20] was 7.48%, the viability, T/C [21] was 6.75% and the viability, T/C [22] was 9.71%. It also gave a viability, T/C [23] of 103%, a viability, T/C [24] of 85.2% and a viability, T/C [25] of 13%. For the same compound, the viability, T/C [26] was 8.41%, the viability, T/C [27] was 9.99% and the viability, T/C [28] was 10.3%.

Work on `CC1(O)CCCC1n1c(=O)c(C(F)F)cc2cnc(NC3CCN(S(C)(=O)=O)CC3)nc21` (configuration not stated) + C#Cc1c(F)ccc2cc(O)cc(-c3ncc4c(N5CC6CCC(C5)N6)nc(OCC56CCCN5CC(F)C6)nc4c3F)c12 yielded an IC50 [1] of 2.54 µM, an IC50 [2] of 2.97 µM and an IC50 [3] of 3.63 µM. The IC50 [4] was 2.08 µM, the IC50 [29] was 2.21 µM and the IC50 [30] was 2.9 µM. For the same compound, the viability, T/C [7] was 95%, the viability, T/C [8] was 66.2% and the viability, T/C [9] was 60.5%. For the same compound, the viability, T/C [10] was 79.6%, the viability, T/C (second compound 0.0316 µM, first compound 3.16 µM) was 44.1% and the viability, T/C (second compound 0.0316 µM, first compound 10 µM) was 2.88%. For the same compound, the viability, T/C [13] was 78.7%, the viability, T/C [14] was 76.5% and the viability, T/C [15] was 68.7%. It also gave a viability, T/C [16] of 61.2%, a viability, T/C (second compound 0.1 µM, first compound 3.16 µM) of 53.6% and a viability, T/C (second compound 0.1 µM, first compound 10 µM) of 2.44%. It also gave a viability, T/C [19] of 89.9%, a viability, T/C [20] of 72.2% and a viability, T/C [21] of 68.3%. For the same compound, the viability, T/C [22] was 66.9%, the viability, T/C (second compound 0.316 µM, first compound 3.16 µM) was 60.4% and the viability, T/C (second compound 0.316 µM, first compound 10 µM) was 3.62%. For the same compound, the viability, T/C [25] was 91.5%, the viability, T/C [26] was 81.4% and the viability, T/C [27] was 66.8%. It also gave a viability, T/C [28] of 64.7%, a viability, T/C (second compound 1 µM, first compound 3.16 µM) of 47.2% and a viability, T/C (second compound 1 µM, first compound 10 µM) of 1.8%. For the same compound, the viability, T/C [31] was 104%, the viability, T/C [32] was 84.9% and the viability, T/C [33] was 66.2%. It also gave a viability, T/C [34] of 62.2%, a viability, T/C (second compound 3.16 µM, first compound 3.16 µM) of 58% and a viability, T/C (second compound 3.16 µM, first compound 10 µM) of 2.91%. For the same compound, the viability, T/C [35] was 89.1%, the viability, T/C [36] was 70.8% and the viability, T/C [37] was 82.7%. The viability, T/C [38] was 57.1%, the viability, T/C (second compound 10 µM, first compound 3.16 µM) was 55.9% and the viability, T/C (second compound 10 µM, first compound 10 µM) was 2.88%.

For `C=CC(=O)Nc1cc(Nc2nccc(-c3cn(C)c4ccccc34)n2)c(OC)cc1N(C)CCN(C)C` + C#Cc1c(F)ccc2cc(O)cc(-c3ncc4c(N5CC6CCC(C5)N6)nc(OCC56CCCN5CC(F)C6)nc4c3F)c12, the IC50 [1] was over 1 µM, the IC50 [2] was over 1 µM and the IC50 [3] was over 1 µM. The IC50 [4] was over 1 µM, the IC50 [29] was over 1 µM and the IC50 [30] was over 1 µM. For the same compound, the viability, T/C [5] was 103%, the viability, T/C [6] was 90.8% and the viability, T/C [7] was 99%. For the same compound, the viability, T/C [8] was 80.7%, the viability, T/C [9] was 88.9% and the viability, T/C [10] was 66.7%. It also gave a viability, T/C [11] of 115%, a viability, T/C [12] of 109% and a viability, T/C [13] of 92.7%. For the same compound, the viability, T/C [14] was 92.9%, the viability, T/C [15] was 86.6% and the viability, T/C [16] was 66.8%. It also gave a viability, T/C [17] of 82.5%, a viability, T/C [18] of 83.1% and a viability, T/C [19] of 99%. The viability, T/C [20] was 100%, the viability, T/C [21] was 88.4% and the viability, T/C [22] was 62.3%. It also gave a viability, T/C [23] of 95.8%, a viability, T/C [24] of 80.8% and a viability, T/C [25] of 91%. It also gave a viability, T/C [26] of 96.1%, a viability, T/C [27] of 85.2% and a viability, T/C [28] of 64.4%. The viability, T/C (second compound 3.16 µM, first compound 0.00316 µM) was 106%, the viability, T/C (second compound 3.16 µM, first compound 0.01 µM) was 89.5% and the viability, T/C [31] was 96.7%. For the same compound, the viability, T/C [32] was 75.6%, the viability, T/C [33] was 70.7% and the viability, T/C [34] was 68.5%. For the same compound, the viability, T/C (second compound 10 µM, first compound 0.00316 µM) was 100%, the viability, T/C (second compound 10 µM, first compound 0.01 µM) was 86.6% and the viability, T/C [35] was 85.3%. The viability, T/C [36] was 103%, the viability, T/C [37] was 84% and the viability, T/C [38] was 61.9%.

With `CCN1CCN(Cc2ccc(Nc3ncc(F)c(-c4cc(F)c5nc(C)n(C(C)C)c5c4)n3)nc2)CC1` the viability, T/C (compound 0.00316 µM) was 92.9% [middle of 4 runs], the viability, T/C (compound 0.01 µM) was 88.4% [middle of 4 runs] and the viability, T/C (compound 0.0316 µM) was 100% [middle of 4 runs]. The viability, T/C (compound 0.316 µM) was 75.5% [middle of 4 runs], the viability, T/C (compound 1 µM) was 67.7% [middle of 4 runs] and the IC50 (curve of compound) was over 1 µM.
